The source of these data is PMC8115122, “Development of Fluorescent and Biotin Probes Targeting NLRP3” (Frontiers in Chemistry, 2021).

One may read the Kd as a measure of binding affinity in units of concentration. Low readings indicate a tighter complex, high ones a looser complex. Broadly, the melting point is the temperature of the solid-liquid transition.

The subject of data set [1] is immortalized murine bone marrow-derived macrophages. As to the kind of experiment: CellTiter-Blue cell viability assay. Format: cell-based. The following applies: 4 h in Opti-MEM, tested 625 nM to 40 μM. Here is the method: Next, the probes were examined in cell culture experiments. First, we determined the cytotoxicity of probes 1–4 at different concentrations between 625 nM and 40 μM in immortalized murine bone marrow-derived macrophages (Figure 4).
Figure 4 Cell viability of immortalized murine bone marrow-derived macrophages after treatment with probes 1–4. Cells were treated with the probes at different concentrations in Opti-MEM for 4 h. Cell viability was assessed using the CellTiter-Blue cell viability assay.
NLRP3 KO immortalized murine bone marrow-derived macrophages overexpressing mouse NLRP3-FLAG and human ASC-mCerulean were seeded in 96 well plates and incubated overnight. Cells were treated with the fluorescent probes (1 and 2) and the biotin-tagged probes (3 and 4) at different concentrations in Opti-MEM for 4 h. Subsequently, cell viability was assessed using CellTiter-Blue® cell viability assay according to the manufacturer's instructions.
For orientation: Resazurin is reduced to fluorescent resorufin, in cell work by metabolically active cells.

In data set [2] the target is human NLRP3-PYD-NACHT domain protein (Homo sapiens, UniProt Q96P20). Nature of the data set: SPR single-cycle kinetic binding to immobilized biotinylated NLRP3-PYD-NACHT. Conditions: for kd, first-order off-rate constant for dissociation: SPR, 25 °C, 1:1 binding model; for kon: read-out: ka, second-order on-rate constant for association.
Sequence of human NLRP3-PYD-NACHT domain protein (Q96P20 1-649 limits assumed): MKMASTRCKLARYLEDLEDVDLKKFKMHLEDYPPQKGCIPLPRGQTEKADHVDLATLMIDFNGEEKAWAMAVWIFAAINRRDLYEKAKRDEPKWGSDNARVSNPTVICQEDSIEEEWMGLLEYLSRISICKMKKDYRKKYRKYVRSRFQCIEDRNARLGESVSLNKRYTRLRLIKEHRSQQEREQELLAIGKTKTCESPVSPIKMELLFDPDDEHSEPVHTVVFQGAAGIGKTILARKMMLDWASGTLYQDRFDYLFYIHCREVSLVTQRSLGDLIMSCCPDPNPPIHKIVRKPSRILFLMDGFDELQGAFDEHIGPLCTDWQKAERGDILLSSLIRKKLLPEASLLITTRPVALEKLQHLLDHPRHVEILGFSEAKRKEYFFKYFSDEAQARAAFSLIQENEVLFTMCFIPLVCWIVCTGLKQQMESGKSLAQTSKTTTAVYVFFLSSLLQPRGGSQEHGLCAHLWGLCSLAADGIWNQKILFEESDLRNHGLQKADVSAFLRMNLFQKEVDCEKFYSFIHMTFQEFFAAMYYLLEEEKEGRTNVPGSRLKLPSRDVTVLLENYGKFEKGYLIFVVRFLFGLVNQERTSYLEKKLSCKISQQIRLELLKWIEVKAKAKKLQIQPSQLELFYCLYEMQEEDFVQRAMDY
Method: HEK293T cells were transiently co-transfected with human avi-FLAG-His10-NLRP3-PYD-NACHT domain (pIRES puro 3 vector) and BirA (pcDNA3.1 vector) for in-cell biotinylation at the lysine amino group of the Avi-tag. […] Eluted protein was stored snap frozen in liquid nitrogen, aliquoted, and stored at −80 °C.
SPR experiments were performed using a Biacore 8K instrument (GE Healthcare). The flow system was cleaned using the maintenance “Desorb” function (Desorb Kit, GE Healthcare). […] Biotinylated NLRP3-PYD-NACHT protein (2 μL/min, 900 s) was immobilized on the sensor chip flow cell 2. The flow system was washed using 50% isopropanol in 1 M NaCl and 50 mM NaOH. Free streptavidin binding sites were blocked by four consecutive 2-min injections (1,000 nM, 10 μL/min) of Biotin-PEG (Mn = 2,300 Da) (Sigma Aldrich). […] Data were collected at a rate of 10 Hz. The binding data were double referenced by blank cycle and reference flow cell subtraction. Data were corrected by a 4-point solvent correction. For kinetic binding experiments, processed data were fitted to a 1:1 interaction model using the Biacore Insight Evaluation Software (version 3.0.12.15655).
Data set [3] deals with NLRP3-dependent cell death. Nature of the data set: LDH release (pyroptosis) after LPS and nigericin, NLRP3-dependent. Format: cell-based, murine. The following applies: LPS + nigericin. (In general: LDH in the medium is a marker of cell lysis.)
Method: NLRP3 KO Immortalized murine bone marrow-derived macrophages overexpressing mouse NLRP3-Flag and human ASC-mCerulean were seeded in 96-well plates and incubated for 16 h. Cells were treated with 400 ng/mL ultrapure LPS for 3 h. […] Subsequently, to induce NLRP3 inflammasome activation, cells were treated with 10 μM nigericin for 1.5 h. […] Supernatants were collected to measure cytosolic LDH release by an LDH assay and IL-1ß release by Homogeneous Time Resolved Fluorescence (HTRF). All assays were performed according to the manufacturer's instructions. A two-tailed unpaired t-test was performed using GraphPad Prism 9.
Data set [4] deals with AIM2-dependent cell death. Nature of the data set: LDH release (pyroptosis) after LPS and poly(dA:dT), AIM2-dependent. Format: cell-based, murine. The following applies: LPS + poly(dA:dT). Here is the method:
[…]. All data are means ± SEM (n = 3), Student's t-test. *P ≤ 0.05, **P ≤ 0.01, ***P ≤ 0.001.
To assess pyroptosis, cytosolic lactate dehydrogenase (LDH) release was measured as a marker of cell lysis. […] […]. All assays were performed according to the manufacturer's instructions. A two-tailed unpaired t-test was performed using GraphPad Prism 9.

In another data set the test system is NLRP3 inflammasome. Nature of the data set: IL-1β release (HTRF) after LPS priming and nigericin, NLRP3 inflammasome. The format is cell-based, murine. Conditions: for effect on cytokine (IL-1β) release: 20 μM. The protocol:
The following experiments were performed with probes 1–4 in immortalized murine bone marrow-derived macrophages. Nigericin, an antibiotic carboxylate ionophore, was used as the activator of the NLRP3 inflammasome, owing to its ability to induce a potassium efflux. […] For this purpose, AIM2 was stimulated by transfection with poly(deoxyadenylic-deoxythymidylic) acid [poly(dA:dT)] after pretreatment with LPS. A Homogeneous Time Resolved Fluorescence (HTRF) assay was employed to determine the release of IL-1β (Figure 5).
All data are means ± SEM (n = 3), Student's t-test. *P ≤ 0.05, **P ≤ 0.01, ***P ≤ 0.001.
NLRP3 KO Immortalized murine bone marrow-derived macrophages overexpressing mouse NLRP3-Flag and human ASC-mCerulean were seeded in 96-well plates and incubated for 16 h. Cells were treated with 400 ng/mL ultrapure LPS for 3 h. […] Subsequently, to induce NLRP3 inflammasome activation, cells were treated with 10 μM nigericin for 1.5 h. As controls, to activate the AIM2 inflammasome, cells were transfected with 200 ng of poly(dA:dT) using 0.5 μL lipofectamine 2,000 per well for 4 h. Supernatants were collected to measure cytosolic LDH release by an LDH assay and IL-1ß release by Homogeneous Time Resolved Fluorescence (HTRF). All assays were performed according to the manufacturer's instructions. A two-tailed unpaired t-test was performed using GraphPad Prism 9.

A further data set deals with AIM2 inflammasome. Nature of the data set: IL-1β release (HTRF) after LPS priming and poly(dA:dT) transfection, AIM2 inflammasome. Conditions: poly(dA:dT). (In TR-FRET formats the signal depends on donor and acceptor labels being close together.)
A further data set deals with human NLRP3-PYD-NACHT (Homo sapiens, UniProt Q96P20). Nature of the data set: SPR competition mode (second ligand injected 120 s after the first). The following applies: competition with CRID3/MCC950, equimolar, 10-times the kinetic KD of the test compound, either order of injection.
Sequence of human NLRP3-PYD-NACHT (Q96P20 1-649 limits assumed): as above
The mark [5] stands for this setting: concentrations of Figure 5 (not given).

Method for AIM2 inflammasome: The following experiments were performed with probes 1–4 in immortalized murine bone marrow-derived macrophages. […] For this purpose, AIM2 was stimulated by transfection with poly(deoxyadenylic-deoxythymidylic) acid [poly(dA:dT)] after pretreatment with LPS. A Homogeneous Time Resolved Fluorescence (HTRF) assay was employed to determine the release of IL-1β (Figure 5).

As for `O=C(COCCOCCNC(=O)c1cc2cc3c4c(c2oc1=O)CCCN4CCC3)NCc1ccc(S(=O)(=O)NC(=O)Nc2c3c(cc4c2CCC4)CCC3)cc1` [Compound 1, N-(2-(2-(2-([4-(N-([1,2,3,5,6,7-Hexahydro-s-indacen-4-yl]carbamoyl)sulfamoyl)benzyl]amino)-2-oxoethoxy)ethoxy)ethyl)-11-oxo-2,3,6,7-tetrahydro-1H,5H,11H-pyrano[2,3-f]pyrido[3,2,1-ij]quinoline-10-carboxamide], in data set [1], the “non-toxic up to concentration” value is “up to 10 μM”. In addition, in data set [2], binding was put at a Kd of 0.813 µM; the “kd, first-order off-rate constant for dissociation” value (“kd, first-order off-rate constant” below) worked out at 0.01 s⁻¹; the kon turned out to be 13000 M⁻¹ s⁻¹. Further, the “NLRP3-dependent cell death (LDH release)” value in data set [3] (10 μM) is on record as “prevented”. In addition, the “AIM2-dependent cell death (LDH release)” value in data set [4] (10 μM) is on record as “but not the AIM2-dependent cell death”. Further, in the data set on NLRP3 inflammasome (10 μM), the “inhibition of IL-1β release” value is on record as “complete inhibition”. For the same molecule, the “AIM2-dependent IL-1β release” value with AIM2 inflammasome (setting [5]) was “did not affect this process”.
`O=C(CCCC[C@H]1SC[C@H]2NC(=O)N[C@H]21)NCCOCCOCC(=O)NCc1ccc(S(=O)(=O)NC(=O)Nc2c3c(cc4c2CCC4)CCC3)cc1` [Compound 3, N-(2-(2-(2-([4-(N-([1,2,3,5,6,7-Hexahydro-s-indacen-4-yl]carbamoyl)sulfamoyl)benzyl]amino)-2-oxoethoxy)ethoxy)ethyl)-5-([3aR,4R,6aS]-2-oxohexahydro-1H-thieno[3,4-d]imidazol-4-yl)pentanamide] gave a melting point of 140 to 142 °C. In data set [1], the “non-toxic up to concentration” value is given as “up to 40 μM”. Also, in data set [2], the Kd turned out to be 1.03 µM; the “kd, first-order off-rate constant” value stood at 0.022 s⁻¹; the kon was found to be 22000 M⁻¹ s⁻¹. Further, the “effect on cytokine (IL-1β) release” value in the data set with NLRP3 inflammasome is “did not significantly affect the cytokine release”.
Consider `O=C(CCCCC1SCC2NC(=O)NC21)NCc1ccc(S(=O)(=O)NC(=O)Nc2c3c(cc4c2CCC4)CCC3)cc1` (centres unmarked) [Compound 4], for which the “non-toxic up to concentration” value in data set [1] is reported as “up to 40 μM”. For the same molecule, in data set [2], binding was characterised by a dissociation constant (Kd) of 0.611 µM; the “kd, first-order off-rate constant” value came out at 0.0088 s⁻¹; the kon is 14000 M⁻¹ s⁻¹. The “response change indicative of a second binding site” value on human NLRP3-PYD-NACHT is recorded as “No significant response change”. In addition, the “effect on cytokine (IL-1β) release” value in the data set with NLRP3 inflammasome is “did not significantly affect the cytokine release”.
For the molecule `CC(C)(O)c1coc(S(=O)(=O)NC(=O)Nc2c3c(cc4c2CCC4)CCC3)c1` [CRID3/MCC950, reference compound], the “AIM2-dependent cell death (LDH release)” value in data set [4] (2.5 μM) is recorded as “but not the AIM2-dependent cell death”. The “AIM2-dependent IL-1β release” value in the data set on AIM2 inflammasome (setting [5]) is listed as “did not affect this process”.
For the molecule `O=C(Nc1c2c(cc3c1CCC3)CCC2)NS(=O)(=O)c1ccc(CNC(=O)c2cc3cc4c5c(c3oc2=O)CCCN5CCC4)cc1` [Compound 2], the “some cytotoxicity at concentrations higher than” value in data set [1] is on record as “higher than 2.5 μM”. Also, in data set [2], binding was put at a Kd of 0.322 µM; the “kd, first-order off-rate constant” value came out at 0.0033 s⁻¹; the kon turned out to be 10000 M⁻¹ s⁻¹. At human NLRP3-PYD-NACHT, the “response change indicative of a second binding site” value is listed as “No significant response change”. In addition, in data set [3] (2.5 μM), the “NLRP3-dependent cell death (LDH release)” value is listed as “prevented”. For the same molecule, the “AIM2-dependent cell death (LDH release)” value in data set [4] (2.5 μM) is given as “but not the AIM2-dependent cell death”. In addition, in the data set with NLRP3 inflammasome (2.5 μM), the “inhibition of IL-1β release” value is “complete inhibition”. Moreover, the “AIM2-dependent IL-1β release” value in the data set on AIM2 inflammasome (2.5 μM) is given as “only a slightly reduced AIM2-dependent release of IL-1β”. In addition, in the data set with AIM2 inflammasome (20 μM, data not shown, attributed to cytotoxicity), the “AIM2-dependent IL-1β release” value is “reduced AIM2-dependent IL-1β release”.
